From patent US11844801B2, “Oral compositions of MK2 pathway inhibitor for treatment of immune conditions” (priority 2020, dated 2023)

What was measured:
TNFα = assay: LPS stimulated TNFα in differentiated U937 cells (hPBMC), ELISA; assay type: cell-based; settings: Homo sapiens, U-937; LPS 0.1 μg/mL, 4 hours
Protocol: (§1) Therefore, inhibition of the p38 MAP Kinase pathway will lower the inflammatory response by decreasing biosynthesis of pro-inflammatory cytokines. […] The U937 human pre-monocytic cell line was obtained from the American Type Culture Collection (Rockville, MD). These cells were differentiated to a monocytic/macrophage phenotype as described by Burnette (Burnette et al, (2009). […] Differentiated U937 cells (human peripheral blood mononuclear cells (hPBMC)) were seeded into 96-well tissue culture plates (200,000 cells/well) in complete media. […] Culture media was then collected for determination of TNFα, IL-6 or IL-10 levels by ELISA. Cytokine concentrations were extrapolated from recombinant protein standard curves using a four-parameter logistic model and solving for IC50 after iterating to the best least-squares fit.

IL-1β = assay: LPS stimulated IL-1β in differentiated U937 cells (hPBMC), ELISA; assay type: cell-based; settings: Homo sapiens, U-937; LPS 0.1 μg/mL, 4 hours
IL-6 = assay: LPS stimulated IL-6 in differentiated U937 cells (hPBMC), ELISA; assay type: cell-based; settings: Homo sapiens, U-937; LPS 0.1 μg/mL, 4 hours
Protocol: as §1

[1] = Crystal form screen of Compound (P)-I; assay type: physicochemical; settings: for Crystal form obtained, EV: evaporation; for Crystal form obtained, RC: rapid cooling 40 to −20° C.; for Crystal form obtained, TC: temperature-cycled slurry 5-40° C.
Protocol: Water-containing solvents with a variety of water activities (aw)^1 were also included to probe for the formation of hydrates. Temperatures ranging between 40° C. to −20° C.
The screening studies were comprised of the following crystallization modes: • Temperature-cycled ripening of API slurries between 5-40° C. for four days (TC) • Rapid cooling clarified saturated solutions from 40 to −20° C. and holding at −20° C. for three days (RC) • Slow evaporation of clarified solutions at RT over 14 days.

[2] = MTX 7.5 mg single oral dose alone, fasted
[3] = 2-Methoxyethanol:Isopropyl ether (20:80)
[4] = 2-propanol:Water (90:10), water activity 0.65
[5] = 2-propanol:Water (95:5), water activity 0.55
[6] = Acetone:Water (20:80), water activity 0.96
[7] = Acetone:Water (80:20), water activity 0.77
[8] = Acetonitrile:Water (90:10), water activity 0.76
[9] = Methanol:Water (90:10), water activity 0.33
[10] = Methanol:Water (95:5), water activity 0.20
[11] = Tetrahydrofuran::Water (20:80), water activity 0.82

For Cc1cnc(-c2ccnc(C(C)(C)O)n2)cc1-n1c(C)cc(OCc2ncc(F)cc2F)c(Cl)c1=O (single isomer, unassigned) [(P)-I, (P)-3-chloro-4-((3,5-difluoropyridin-2-yl)methoxy)-2′-(2-(2-hydroxypropan-2-yl)pyrimidin-4-yl)-5′,6-dimethyl-2H-[1,4′-bipyridin]-2-one], the IC50 (TNFα) was 0.004 µM, the IC50 (IL-1β) was 0.012 µM and the IC50 (IL-6) was 0.145 µM. The “Crystal form obtained, EV” value ([1]; 1,4-Dioxane) was “Form A”, the “Crystal form obtained, EV” value ([1]; 1,4-Dioxane:Water (90:10), water activity 0.70) was “Form A” and the “Crystal form obtained, EV” value ([1]; 1-Propanol) was “Form A”. The “Crystal form obtained, EV” value ([1]; 2-Butanone) was “Form A”, the “Crystal form obtained, EV” value [1, 3] was “Form A” and the “Crystal form obtained, EV” value ([1]; 2-Propanol) was “Form A”. For the same compound, the “Crystal form obtained, EV” value [1, 4] was “Form A”, the “Crystal form obtained, EV” value [1, 5] was “Form A” and the “Crystal form obtained, EV” value ([1]; 4-Methyl-2-pentanone) was “Form A”. For the same compound, the “Crystal form obtained, EV” value ([1]; Acetone) was “Form A”, the “Crystal form obtained, EV” value [1, 6] was “Form A” and the “Crystal form obtained, EV” value [1, 7] was “Form A”. For the same compound, the “Crystal form obtained, EV” value ([1]; Acetone:Water (90:10), water activity 0.70) was “Form A”, the “Crystal form obtained, EV” value ([1]; Acetonitrile) was “Form A” and the “Crystal form obtained, EV” value [1, 8] was “Form A”. For the same compound, the “Crystal form obtained, EV” value ([1]; DMSO:t-butyl methyl ether (20:80)) was “Form A”, the “Crystal form obtained, EV” value ([1]; Dichloromethane) was “Form A” and the “Crystal form obtained, EV” value ([1]; Dimethyl carbonate) was “Form A”. For the same compound, the “Crystal form obtained, EV” value ([1]; Ethanol) was “Form A”, the “Crystal form obtained, EV” value ([1]; Ethyl acetate) was “Form A” and the “Crystal form obtained, EV” value ([1]; Isopropyl acetate) was “Form A”. For the same compound, the “Crystal form obtained, EV” value ([1]; Methanol) was “Form A”, the “Crystal form obtained, EV” value [1, 9] was “Form A” and the “Crystal form obtained, EV” value [1, 10] was “Form A”. For the same compound, the “Crystal form obtained, EV” value ([1]; Nitromethane) was “Form A”, the “Crystal form obtained, EV” value ([1]; Tetrahydrofuran) was “Form A” and the “Crystal form obtained, EV” value [1, 11] was “Form A”. For the same compound, the “Crystal form obtained, EV” value ([1]; Tetrahydrofuran:Water (90:10), water activity 0.83) was “Form A”, the “Crystal form obtained, EV” value ([1]; Toluene) was “Form A” and the “Crystal form obtained, RC” value [1, 4] was “Form A”. The “Crystal form obtained, RC” value [1, 7] was “Form A”, the “Crystal form obtained, RC” value ([1]; Acetonitrile) was “Form A” and the “Crystal form obtained, RC” value [1, 9] was “Form A”. The “Crystal form obtained, RC” value ([1]; Nitromethane) was “Form A”, the “Crystal form obtained, TC” value ([1]; 1-Butanol) was “Form A” and the “Crystal form obtained, TC” value ([1]; 1-Methoxy-2-propanol:Isopropyl ether (20:80)) was “Form A”. The “Crystal form obtained, TC” value [1, 3] was “Form A”, the “Crystal form obtained, TC” value ([1]; 2-Methoxyethyl ether:Heptane (20:80)) was “Form A” and the “Crystal form obtained, TC” value ([1]; 2-Propanol) was “Form A”. The “Crystal form obtained, TC” value [1, 5] was “Form A”, the “Crystal form obtained, TC” value ([1]; 4-Methyl-2-pentanone) was “Form A” and the “Crystal form obtained, TC” value ([1]; 4-Methyl-2-pentanone:heptane (20:80)) was “Form A”. The “Crystal form obtained, TC” value [1, 6] was “Form A”, the “Crystal form obtained, TC” value ([1]; Acetonitrile) was “Form A” and the “Crystal form obtained, TC” value [1, 8] was “Form A”. For the same compound, the “Crystal form obtained, TC” value ([1]; Acetonitrile:Water (95:5), water activity 0.94) was “Form A”, the “Crystal form obtained, TC” value ([1]; Acetonitrile:isopropyl ethyl ether (20:80)) was “Form A” and the “Crystal form obtained, TC” value ([1]; Chlorobenzene:Cyclohexane (20:80)) was “Form A”. For the same compound, the “Crystal form obtained, TC” value ([1]; Cyclohexane) was “Form A”, the “Crystal form obtained, TC” value ([1]; Dimethyl carbonate) was “Form A” and the “Crystal form obtained, TC” value ([1]; Ethanol:Water (20:80), water activity 0.93) was “Form A”. The “Crystal form obtained, TC” value ([1]; Ethyl acetate:cyclohexane (20:80)) was “Form A”, the “Crystal form obtained, TC” value ([1]; Heptane) was “Form A” and the “Crystal form obtained, TC” value ([1]; Isopropyl acetate) was “Form A”. The “Crystal form obtained, TC” value ([1]; Isopropyl ether) was “Form A”, the “Crystal form obtained, TC” value [1, 9] was “Form A” and the “Crystal form obtained, TC” value [1, 10] was “Form A”. For the same compound, the “Crystal form obtained, TC” value ([1]; Methyl acetate:Heptane (20:80)) was “Form A”, the “Crystal form obtained, TC” value ([1]; N,N-Dimethylformamide:Water (20:80), water activity 0.95) was “Form A” and the “Crystal form obtained, TC” value ([1]; Nitromethane) was “Form A”. The “Crystal form obtained, TC” value [1, 11] was “Form A”, the “Crystal form obtained, TC” value ([1]; Toluene) was “Form A” and the “Crystal form obtained, TC” value ([1]; Trifluoroethanol:Isopropyl ether (20:80)) was “Form A”. The “Crystal form obtained, TC” value ([1]; Water, water activity 1.00) was “Form A” and the “Crystal form obtained, TC” value ([1]; t-Butyl methyl ether) was “Form A”.
In the case of CN(Cc1cnc2nc(N)nc(N)c2n1)c1ccc(C(=O)N[C@@H](CCC(=O)O)C(=O)O)cc1 [MTX, Methotrexate], the “AUC0-∞” value [2] is reported as 562.2 (102.2) ng · h/mL, the Cmax [2] is reported as 163.3 (35.6) ng/mL and the “Tmax, median (min, max)” value [2] is reported as 1.0 (0.5, 2.5) h. For the same compound, the t1/2 [2] was 3.1 (0.7) h.
With Cc1cnc(-c2ccnc(C(C)(C)O)n2)cc1-n1c(C)cc(OCc2ncc(F)cc2F)c(Cl)c1=O (atropisomer, axis not shown; (M)) [(M)-I, (M)-3-chloro-4-((3,5-difluoropyridin-2-yl)methoxy)-2′-(2-(2-hydroxypropan-2-yl)pyrimidin-4-yl)-5′,6-dimethyl-2H-[1,4′-bipyridin]-2-one] the IC50 (TNFα) was > 10000 µM, the IC50 (IL-1β) was > 10000 µM and the IC50 (IL-6) was > 10000 µM.
